# Test results from PMC7377239, “Cardiovascular Effects of Polychlorinated Biphenyls and Their Major Metabolites” (Environmental Health Perspectives, 2020).
# Where two headings read alike, the source gives them in different places.
# How the values were obtained:
# [1] = system: iCell cardiomyocytes (human iPSC-derived cardiomyocytes); assay: High-content imaging of cytotoxicity and mitochondrial integrity in iPSC-CMs; assay type: cell-based; settings: Homo sapiens; for viability at 0.01 µM / activity at 0.01 µM / viability at 0.1 µM / activity at 0.1 µM / viability at 1 µM / activity at 1 µM / viability at 10 µM / activity at 10 µM / viability at 100 µM / activity at 100 µM: Cardiomyocyte, 0.00 µM = 100.00; for viability at 0.1 µM / activity at 0.1 µM: 0.10 µM; for minimal effective concentration: iPSC-CM
# Outline: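 Readouts from high-content images were normalized to vehicle controls containing 0.5% vol/vol DMSO. They were fit to a four-parameter logistic model in R. Points of departure were set using a cutoff of one standard deviation across vehicle control means. Where no concentration–response was seen, the top tested concentration of 100μM was assigned as the no observable adverse effect level.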
# HUVECs = assay: High-content imaging cytotoxicity in HUVECs, 24 h; assay type: cell-based, human; settings: Homo sapiens, HUVEC, 24 h, HUVECs; for viability at 0.01 µM / activity at 0.01 µM / viability at 0.1 µM / activity at 0.1 µM / viability at 1 µM / activity at 1 µM / viability at 10 µM / activity at 10 µM / viability at 100 µM / activity at 100 µM: 0.00 µM = 100.00; for viability at 0.1 µM / activity at 0.1 µM: 0.10 µM; for minimal effective concentration: top concentration 100.00 µM
# Outline: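 Point-of-departure values derive from four-parameter logistic fits of vehicle-normalized imaging phenotypes (Hoechst 33342, MitoTracker Orange, calcein AM). The fits follow 24 h exposure of HUVEC monolayers at 37°C and 5% CO2, with a top tested concentration of 100μM.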
# [2] = 24 hr, read-out: huvec.cyto.24hr
# [3] = 24 hr, read-out: huvec.mito.24hr
# [4] = 24 hr, read-out: huvec.mitoint.24hr
# [5] = 24 hr, read-out: huvec.nma.24hr
# [6] = 24 hrs, read-out: huvec.tc.24hrs
smiles,measurement,setting,value
Oc1cccc(-c2ccc(Cl)cc2)c1 [3'-OH PCB3],viability at 0.01 µM,"[1]; 1.5 h, read-out: cm.cam.90min",101%
same,activity at 0.01 µM,"[1]; 1.5 h, read-out: cm.mii.90min",109%
same,activity at 0.01 µM,"[1]; 1.5 h, read-out: cm.mito.90min",101%
same,viability at 0.01 µM,"[1]; 1.5 h, read-out: cm.tc.90min",101%
same,viability at 0.1 µM,"[1]; 1.5 h, read-out: cm.cam.90min",96.5%
same,activity at 0.1 µM,"[1]; 1.5 h, read-out: cm.mii.90min",107%
same,activity at 0.1 µM,"[1]; 1.5 h, read-out: cm.mito.90min",96.4%
same,viability at 0.1 µM,"[1]; 1.5 h, read-out: cm.tc.90min",96.6%
same,viability at 1 µM,"[1]; 1.5 h, read-out: cm.cam.90min",103%
same,activity at 1 µM,"[1]; 1.5 h, read-out: cm.mii.90min",98.4%
same,activity at 1 µM,"[1]; 1.5 h, read-out: cm.mito.90min",103%
same,viability at 1 µM,"[1]; 1.5 h, read-out: cm.tc.90min",103%
same,viability at 10 µM,"[1]; 1.5 h, read-out: cm.cam.90min",99.4%
same,activity at 10 µM,"[1]; 1.5 h, read-out: cm.mii.90min",106%
same,activity at 10 µM,"[1]; 1.5 h, read-out: cm.mito.90min",99.2%
same,viability at 10 µM,"[1]; 1.5 h, read-out: cm.tc.90min",99.2%
same,viability at 100 µM,"[1]; 1.5 h, read-out: cm.cam.90min",0%
same,activity at 100 µM,"[1]; 1.5 h, read-out: cm.mii.90min",0%
same,activity at 100 µM,"[1]; 1.5 h, read-out: cm.mito.90min",0%
same,viability at 100 µM,"[1]; 1.5 h, read-out: cm.tc.90min",0%
same,viability at 0.01 µM,"[1]; 24 h, read-out: cm.cam.24hrs",91.7%
same,activity at 0.01 µM,"[1]; 24 h, read-out: cm.mii.24hrs",99.6%
same,activity at 0.01 µM,"[1]; 24 h, read-out: cm.mito.24hrs",88.3%
same,viability at 0.01 µM,"[1]; 24 h, read-out: cm.tc.24hrs",91.6%
same,viability at 0.1 µM,"[1]; 24 h, read-out: cm.cam.24hrs",99.1%
same,activity at 0.1 µM,"[1]; 24 h, read-out: cm.mii.24hrs",109%
same,activity at 0.1 µM,"[1]; 24 h, read-out: cm.mito.24hrs",97.5%
same,viability at 0.1 µM,"[1]; 24 h, read-out: cm.tc.24hrs",98.9%
same,viability at 1 µM,"[1]; 24 h, read-out: cm.cam.24hrs",104%
same,activity at 1 µM,"[1]; 24 h, read-out: cm.mii.24hrs",92.4%
same,activity at 1 µM,"[1]; 24 h, read-out: cm.mito.24hrs",101%
same,viability at 1 µM,"[1]; 24 h, read-out: cm.tc.24hrs",104%
same,viability at 10 µM,"[1]; 24 h, read-out: cm.cam.24hrs",98%
same,activity at 10 µM,"[1]; 24 h, read-out: cm.mii.24hrs",98.8%
same,activity at 10 µM,"[1]; 24 h, read-out: cm.mito.24hrs",97.5%
same,viability at 10 µM,"[1]; 24 h, read-out: cm.tc.24hrs",98.6%
same,viability at 100 µM,"[1]; 24 h, read-out: cm.cam.24hrs",0.0471%
same,activity at 100 µM,"[1]; 24 h, read-out: cm.mii.24hrs",0%
same,activity at 100 µM,"[1]; 24 h, read-out: cm.mito.24hrs",0%
same,viability at 100 µM,"[1]; 24 h, read-out: cm.tc.24hrs",0.09%
same,minimal effective concentration,"[1]; 1.5 h, read-out: cm.cam.90min POD",16 µM
same,minimal effective concentration,"[1]; 1.5 h, read-out: cm.mii.90min POD",35 µM
same,minimal effective concentration,"[1]; 1.5 h, read-out: cm.mito.90min POD",15 µM
same,minimal effective concentration,"[1]; 1.5 h, read-out: cm.tc.90min POD",14.8 µM
same,minimal effective concentration,"[1]; 24 h, read-out: cm.cam.24hrs POD",14.1 µM
same,minimal effective concentration,"[1]; 24 h, read-out: cm.mii.24hrs POD",23 µM
same,minimal effective concentration,"[1]; 24 h, read-out: cm.mito.24hrs POD",14 µM
same,minimal effective concentration,"[1]; 24 h, read-out: cm.tc.24hrs POD",15.6 µM
same,viability at 0.01 µM,HUVECs; [2],89.2%
same,activity at 0.01 µM,HUVECs; [3],89.3%
same,activity at 0.01 µM,HUVECs; [4],101%
same,activity at 0.01 µM,HUVECs; [5],97.3%
same,viability at 0.1 µM,HUVECs; [2],100%
same,activity at 0.1 µM,HUVECs; [3],100%
same,activity at 0.1 µM,HUVECs; [4],111%
same,activity at 0.1 µM,HUVECs; [5],92.6%
same,viability at 1 µM,HUVECs; [2],94.4%
same,activity at 1 µM,HUVECs; [3],93.7%
same,activity at 1 µM,HUVECs; [4],104%
same,activity at 1 µM,HUVECs; [5],92%
same,viability at 10 µM,HUVECs; [2],70.9%
same,activity at 10 µM,HUVECs; [3],66.2%
same,activity at 10 µM,HUVECs; [4],108%
same,activity at 10 µM,HUVECs; [5],84.9%
same,viability at 100 µM,HUVECs; [2],63.7%
same,activity at 100 µM,HUVECs; [3],77.8%
same,activity at 100 µM,HUVECs; [4],19.3%
same,activity at 100 µM,HUVECs; [5],68.8%
same,minimal effective concentration,"HUVECs; 24 hr, read-out: huvec.cyto.24hr POD",1.1 µM
same,minimal effective concentration,"HUVECs; 24 hr, read-out: huvec.mito.24hr POD",0.97 µM
same,minimal effective concentration,"HUVECs; 24 hr, read-out: huvec.mitoint.24hr POD",41.4 µM
same,minimal effective concentration,"HUVECs; 24 hr, read-out: huvec.nma.24hr POD",0.04 µM
same,viability at 0.01 µM,HUVECs; [6],89.2%
same,viability at 0.1 µM,HUVECs; [6],100%
same,viability at 1 µM,HUVECs; [6],94.6%
same,viability at 10 µM,HUVECs; [6],71%
same,viability at 100 µM,HUVECs; [6],83.9%
same,minimal effective concentration,"HUVECs; 24 hrs, read-out: huvec.tc.24hrs POD",1.1 µM
